Source: ChEMBL document CHEMBL1201862, “PubChem BioAssay data set” (2004)
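Values below derive from 48-hour exposures of cells grown in 96-well plates, with endpoints linearly interpolated between the two concentrations bracketing the appropriate inhibition level. GI50 is the concentration that inhibits growth by half.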 The source made the active and inactive calls. Cut-off read from the data, not from the text of the source: active = GI50 up to about 1.1 µM and inactive = higher.

Columns and labels:
Assay in all cases: NCI anticancer screen, dose series, 48 h
[1] = tested on: LOX IMVI
[2] = tested on: NCI-H226
[3] = tested on: SF-268
[4] = tested on: CCRF-CEM
[5] = tested on: OVCAR-4
[6] = tested on: EKVX
[7] = tested on: HL-60
[8] = tested on: TK-10
[9] = tested on: Hs-578T
[10] = tested on: HCC 2998
[11] = tested on: UO-31
[12] = tested on: RPMI-8226
[13] = tested on: SN12C
[14] = tested on: UACC-62
[15] = tested on: HT-29
[16] = tested on: CAKI-1
[17] = tested on: MCF7
[18] = tested on: SF-295
[19] = tested on: T47D
[20] = tested on: SR

Row | Compound | GI50 [1] | GI50 [2] | GI50 [3] | GI50 [4] | GI50 [5] | GI50 [6] | GI50 [7] | GI50 [8] | GI50 [9] | GI50 [10] | GI50 [11] | GI50 [12] | GI50 [13] | GI50 [14] | GI50 [15] | GI50 [16] | GI50 [17] | GI50 [18] | GI50 [19] | GI50 [20]
1 | CC/C(Cl)=N\OC(=O)Nc1ccc(F)cc1F | 2.5 µM (inactive) | 17.9 µM (inactive) | 24.1 µM (inactive) | 1.54 µM (inactive) | 17.9 µM (inactive) | 8.55 µM (inactive) | 1.91 µM (inactive) | 12 µM (inactive) | 32.2 µM (inactive) | 19.3 µM (inactive) | 14.9 µM (inactive) | 1.49 µM (inactive) | 5.73 µM (inactive) | 15.2 µM (inactive) | 21.3 µM (inactive) | 1.71 µM (inactive) | 7.78 µM (inactive) | 26.4 µM (inactive) | 6.28 µM (inactive) | 
2 | COc1cc(NS(C)(=O)=O)ccc1Nc1ccnc2ccc3[nH]ccc3c12 | 15.2 µM (inactive) | 18.9 µM (inactive) | 11 µM (inactive) | 10.4 µM (inactive) | 14.3 µM (inactive) | 19.4 µM (inactive) | 31.5 µM (inactive) | 16.3 µM (inactive) | 21.3 µM (inactive) |  | 40.2 µM (inactive) | 15 µM (inactive) | 14.4 µM (inactive) | 17.8 µM (inactive) | 16.8 µM (inactive) | 17.3 µM (inactive) | 15.6 µM (inactive) | 18.2 µM (inactive) | 14.9 µM (inactive) | 
3 | CCOC(=O)/C=C(\C(=O)OCC)n1ccc(=O)n(Cc2cnnn2COCCOC(C)=O)c1=O | 12.2 µM (inactive) | 16.8 µM (inactive) | 16.5 µM (inactive) | 1.61 µM (inactive) | 23.9 µM (inactive) | 14.5 µM (inactive) | 0.598 µM (active) | 5.64 µM (inactive) | 20.5 µM (inactive) | 17.9 µM (inactive) | 16.8 µM (inactive) | 8.15 µM (inactive) | 15.4 µM (inactive) | 16.1 µM (inactive) | 14.2 µM (inactive) | 2.97 µM (inactive) | 6.4 µM (inactive) | 28.7 µM (inactive) | 6.11 µM (inactive) | 
4 | CC(C)(O)C1OCC(C2CCC3(C)C4=CCC5C(C)(C)C(O)CCC5(C)C4CCC23C)CC1O (stereo not given) | 17.9 µM (inactive) | 13 µM (inactive) | 16.1 µM (inactive) | 26.4 µM (inactive) | 11.8 µM (inactive) | 17.2 µM (inactive) | > 100 µM (inactive) | 13.2 µM (inactive) | 13.8 µM (inactive) | 16.6 µM (inactive) | 16 µM (inactive) | 7.94 µM (inactive) | 14.4 µM (inactive) | 14.9 µM (inactive) | 13.1 µM (inactive) | 16 µM (inactive) | 11.6 µM (inactive) | 13.9 µM (inactive) | 13.7 µM (inactive) | 
5 | O=C(O)CO/N=C1/C(=C2/C(=O)Nc3ccccc32)Nc2ccccc21 | 28.4 µM (inactive) |  | 35.7 µM (inactive) | 43.1 µM (inactive) | 48.5 µM (inactive) | 24.9 µM (inactive) | 64.4 µM (inactive) | > 100 µM (inactive) | 29.6 µM (inactive) | 33.1 µM (inactive) | 65 µM (inactive) | > 100 µM (inactive) | 88.3 µM (inactive) | 38.4 µM (inactive) | 44.5 µM (inactive) | 25.8 µM (inactive) | 36 µM (inactive) | 89.9 µM (inactive) | 35.8 µM (inactive) | 39.5 µM (inactive)
6 | NC(=O)c1nnn(-c2ccccc2)c1O | > 100 µM (inactive) | > 100 µM (inactive) | > 100 µM (inactive) | > 100 µM (inactive) |  | > 100 µM (inactive) | 0.1 µM (active) | > 100 µM (inactive) | > 100 µM (inactive) | > 100 µM (inactive) | > 100 µM (inactive) | > 100 µM (inactive) | > 100 µM (inactive) | > 100 µM (inactive) | > 100 µM (inactive) | > 100 µM (inactive) | > 100 µM (inactive) | > 100 µM (inactive) | > 100 µM (inactive) | 
7 | c1ccc([P+](c2ccccc2)(c2ccccc2)c2ccc(-c3ccc([P+](c4ccccc4)(c4ccccc4)c4ccccc4)cc3)cc2)cc1 | 23.3 µM (inactive) | 30.8 µM (inactive) | 58.5 µM (inactive) | 82.4 µM (inactive) | 21.5 µM (inactive) | 37 µM (inactive) | > 100 µM (inactive) | 34.8 µM (inactive) | > 100 µM (inactive) | 47.4 µM (inactive) |  | > 100 µM (inactive) | 26.5 µM (inactive) | 56.6 µM (inactive) | 20.7 µM (inactive) | > 100 µM (inactive) | 36.8 µM (inactive) | 30.2 µM (inactive) | 41.4 µM (inactive) | 
